In patent publication US10696693B2, “Fused imidazole derivatives as TGF-beta inhibitors” (Rigel Pharmaceuticals, Inc., priority 2014, dated 2020):
Where two headings read alike, the source gives them in different places.

Experiments:
GDF8 = assay: AlphaScreen SureFire p-SMAD3 (Ser423/425) assay, GDF8-stimulated cells; assay type: cell-based; conditions: Mus musculus
Source text: (§1) The p-SMAD-3 (Ser423/425) SureFire® assay has been designed to measure the phosphorylation of endogenous cellular p-SMAD-3 (Ser423/425) in cell lysates and is a system for the screening of both modulators of receptor activation (e.g. agonists and antagonists) as well as agents acting intracellularly, such as small molecule inhibitors of upstream events. The assay will measure p-SMAD-3 (Ser423/425) activation by either cloned or endogenous receptors, and can be applied to primary cells.
(§2) 96-well Assay Protocol for 293FT and RMS13 adherent cells can be carried out manually or in high throughput with liquid handling robots.
(§3) The cells (80 μL of cells for 96 well plates) were plated in collagen coated tissue culture plates in RPMI or FreeStyle medium (Invitrogen) and incubated overnight. For manual analysis, 6 plates for GDF8, 6 plates for TGFβ, and optionally 6 plates for Alk5ca(ALK5 constitutively active) were used.
(§4) The compound dilution plates were prepared as follows: 12 μL of DMSO was transferred into first column of 96-well plate, and 16 μL of DMSO was transferred into columns 2-12 of the 96-well plate. 12 μL of compound solution was transferred into first column of the DMSO-containing 96-well plate. Three-fold dilution was performed up to column 10 of the DMSO-containing 96-well plate.
(§5) The plate containing cells were treated with compounds for about 10 minutes, and then ligand was added. GDF8 or TGFb was added to plates to stimulate. 293FL cells were stimulatedfor 90 minutes at 37° C.; and RMS13 cells were stimulated for 60 minutes at 37° C. The medium was then removed from the cells, and 1× Lysis Buffer (about 25 μL) was added and the plate was gently agitated on plate shaker for 5-10 minutes.
(§6) The lysate (5 μL) was then placed into 384-well shallow plates avoiding the generation of bubbles. To this, the Reaction Buffer+Activation Buffer+AlphaScreen® Acceptor beadsmixture (5 μL) was added. The plate was sealed with adhesive cover and shielded from light (e.g., with metal foil), and agitated gently on plate shaker for 2 hours at room temperature.
(§7) Dilution buffer+AlphaScreen® Donor beads (2 μL) was then added, and the plate was intubated on the plate shaker for an additional 1½ hours. After completion, the plate was read on Synergy-4 or Enspire plate reader, using AlphaScreen® pSMAD3® settings.
(§8) Representative results for inhibition of GDF8 (data=GDF pSMAD (MPC11) (μM)) and TGF-β (data=TGF-β pSMAD (MPC-11) (μM)) signaling are shown in Table 1(A=<0.05 μM, B=0.05−<0.1 μM, C=0.1−<1.0 μM, D=>1.0 μM): […]

TGF-β = assay: AlphaScreen SureFire p-SMAD3 (Ser423/425) assay, TGF-β-stimulated cells; assay type: cell-based; conditions: Mus musculus
Source text: as §1, §2, §3, §4, §5, §6, §7, §8

[1] = MPC-11, p-SMAD3 (Ser423/425) AlphaScreen in cell lysate, MPC11, GDF8 stimulation, read-out: GDF8: inhibition of GDF8 signaling, GDF pSMAD (MPC11)
[2] = p-SMAD3 (Ser423/425) AlphaScreen in cell lysate, MPC-11, TGF-β stimulation, read-out: TGF-β: inhibition of TGF-β signaling, TGF-β pSMAD (MPC-11)
[3] = MPC-11, read-out: GDF8: inhibition of GDF8 signaling, GDF pSMAD (MPC11), p-SMAD3 (Ser423/425) AlphaScreen in cell lysate, GDF8 stimulation
[4] = MPC-11, read-out: TGF-β: inhibition of TGF-β signaling, TGF-β pSMAD (MPC-11), p-SMAD3 (Ser423/425) AlphaScreen in cell lysate, TGF-β stimulation

Compound	IC50 (GDF8; [1]) [nM]	IC50 (TGF-β; [2]) [nM]	IC50 (GDF8; [3]) [nM]	IC50 (TGF-β; [4]) [nM]
Cc1cc(F)c(-c2nc3n(c2-c2ccc4nccn4c2)CCC3)cc1F [Compound 48, 6-(2-(2,5-difluoro-4-methylphenyl)-6,7-dihydro-5H-pyrrolo[1,2-a]imidazol-3-yl)imidazo[1,2-c]pyridine]	> 1000	> 1000		
Fc1cc(Cl)c(-c2nc3n(c2-c2ccc4ncnn4c2)CCC3)cc1F [Compound 49, 6-(2-(2-chloro-4,5-difluorophenyl)-6,7-dihydro-5H-pyrrolo[1,2-a]imidazol-3-yl)-[1,2,4]triazolo[1,5-a]pyridine]	100 to 1000	100 to 1000		
Fc1cc(Cl)c(-c2nc3n(c2-c2ccc4nccn4c2)CCC3)cc1F [Compound 50]	50 to 100	100 to 1000		
NC(=O)c1cnc2ccc(-c3c(-c4ccc(F)c(Cl)c4)nc4n3CCC4)cn12 [Compound 51, 6-(2-(3-chloro-4-fluorophenyl)-6,7-dihydro-5H-pyrrolo[1,2-c]imidazol-3-yl)imidazo[1,2-c]pyridine-3-carboxamide]	< 50	50 to 100		
Cc1cc(F)c(F)cc1-c1nc2n(c1-c1ccc3ncc(C(N)=O)n3c1)CCC2 [Compound 52, 6-(2-(4,5-difluoro-2-methylphenyl)-6,7-dihydro-5H-pyrrolo[1,2-a]imidazol-3-yl)imidazo[1,2-a]pyridine-3-carboxamide]	< 50	50 to 100		
NC(=O)c1cnc2ccc(-c3c(-c4cc(F)c(F)c(F)c4)nc4n3CCC4)cn12 [Compound 53, 6-(2-(3,4,5-trifluorophenyl)-6,7-dihydro-5H-pyrrolo[1,2-a]imidazol-3-yl)imidazo[1,2-a]pyridine-3-carboxamide]			50 to 100	50 to 100
Cc1cc(F)ccc1-c1nc2n(c1-c1ccc3ncnn3c1)CCC2 [Compound 54, 6-(2-(4-fluoro-2-methylphenyl)-6,7-dihydro-5H-pyrrolo[1,2-a]imidazol-3-yl)-[1,2,4]triazolo[1,5-a]pyridine]	100 to 1000	> 1000		
Cc1cc(F)ccc1-c1nc2n(c1-c1ccc3nccn3c1)CCC2 [Compound 55, 6-(2-(4-fluoro-2-methylphenyl)-6,7-dihydro-5H-pyrrolo[1,2-a]imidazol-3-yl)imidazo[1,2-a]pyridine]	100 to 1000	> 1000		
Cc1cc(F)c(Cl)cc1-c1nc2n(c1-c1ccc3ncnn3c1)CCC2 [Compound 56, 6-(2-(5-chloro-4-fluoro-2-methylphenyl)-6,7-dihydro-5H-pyrrolo[1,2-a]imidazol-3-yl)-[1,2,4]triazolo[1,5-a]pyridine]	100 to 1000	100 to 1000		
Cc1cc(F)c(Cl)cc1-c1nc2n(c1-c1ccc3nccn3c1)CCC2 [Compound 57, 6-(2-(5-chloro-4-fluoro-2-methylphenyl)-6,7-dihydro-5H-pyrrolo[1,2-a]imidazol-3-yl)imidazo[1,2-a]pyridine]	100 to 1000	100 to 1000		
Cc1ccc(F)cc1-c1nc2n(c1-c1ccc3ncnn3c1)CCC2 [Compound 58, 6-(2-(5-fluoro-2-methylphenyl)-6,7-dihydro-5H-pyrrolo[1,2-a]imidazol-3-yl)-[1,2,4]triazolo[1,5-a]pyridine]	> 1000	> 1000		
Cc1ccc(F)cc1-c1nc2n(c1-c1ccc3nccn3c1)CCC2 [Compound 59, 6-(2-(5-fluoro-2-methylphenyl)-6,7-dihydro-5H-pyrrolo[1,2-a]imidazol-3-yl)imidazo[1,2-a]pyridine]	> 1000	> 1000		
N#Cc1cnc2ccc(-c3c(-c4ccc(F)c(Cl)c4)nc4n3CCC4)cn12 [Compound 61, 6-(2-(3-chloro-4-fluorophenyl)-6,7-dihydro-5H-pyrrolo[1,2-a]imidazol-3-yl)imidazo[1,2-a]pyridine-3-carbonitrile]	100 to 1000	100 to 1000		
Cc1ccccc1-c1nc2n(c1-c1ccc3ncnn3c1)CCC2 [Compound 62, 6-(2-(2-methylphenyl)-6,7-dihydro-5H-pyrrolo[1,2-a]imidazol-3-yl)-[1,2,4]triazolo[1,5-a]pyridine]			> 1000	> 1000
Cc1ccccc1-c1nc2n(c1-c1ccc3nccn3c1)CCC2 [Compound 63, 6-(2-(2-methylphenyl)-6,7-dihydro-5H-pyrrolo[1,2-a]imidazol-3-yl)imidazo[1,2-a]pyridine]	> 1000	> 1000		
Cc1cc(-c2nc3n(c2-c2ccc4ncnn4c2)CCC3)c(C)cc1F [Compound 64, 6-(2-(4-fluoro-2,5-dimethylphenyl)-6,7-dihydro-5H-pyrrolo[1,2-a]imidazol-3-yl)-[1,2,4]triazolo[1,5-a]pyridine]	100 to 1000	> 1000		
Cc1cc(-c2nc3n(c2-c2ccc4nccn4c2)CCC3)c(C)cc1F [Compound 65, 6-(2-(4-fluoro-2,5-dimethylphenyl)-6,7-dihydro-5H-pyrrolo[1,2-a]imidazol-3-yl)imidazo[1,2-a]pyridine]	100 to 1000	> 1000		
Cc1c(F)ccc(-c2nc3n(c2-c2ccc4ncnn4c2)CCC3)c1Cl [Compound 66, 6-(2-(2-chloro-4-fluoro-3-methylphenyl)-6,7-dihydro-5H-pyrrolo[1,2-a]imidazol-3-yl)-[1,2,4]triazolo[1,5-a]pyridine]	100 to 1000	> 1000		
Cc1c(F)ccc(-c2nc3n(c2-c2ccc4nccn4c2)CCC3)c1Cl [Compound 67, 6-(2-(2-chloro-4-fluoro-3-methylphenyl)-6,7-dihydro-5H-pyrrolo[1,2-a]imidazol-3-yl)imidazo[1,2-a]pyridine]	100 to 1000	> 1000		
Cc1cc(-c2nc3n(c2-c2ccc4nccn4c2)CCC3)c(Cl)cc1F [Compound 68, 6-(2-(2-chloro-4-fluoro-5-methylphenyl)-6,7-dihydro-5H-pyrrolo[1,2-a]imidazol-3-yl)imidazo[1,2-a]pyridine]	50 to 100	100 to 1000		
Cc1cc(-c2nc3n(c2-c2ccc4ncnn4c2)CCC3)c(Cl)cc1F [Compound 69, 6-(2-(2-chloro-4-fluoro-5-methylphenyl)-6,7-dihydro-5H-pyrrolo[1,2-a]imidazol-3-yl)-[1,2,4]triazolo[1,5-a]pyridine]	50 to 100	100 to 1000		
O=S(=O)(Nc1cccc(-c2nc3n(c2-c2ccc4nccn4c2)CCC3)c1)c1ccccc1F [Compound 70, 2-fluoro-N-(3-(3-(imidazo[1,2-a]pyridin-6-yl)-6,7-dihydro-5H-pyrrolo[1,2-a]imidazol-2-yl)phenyl)benzenesulfonamide]	> 1000	> 1000		
Fc1ccc(-c2nc3n(c2-c2ccc4ncnn4c2)CC2(CCCC2)C3)cc1 [Compound 71, 3′-([1,2,4]triazolo[1,5-a]pyridin-6-yl)-2′-(4-fluorophenyl)-5′H,7′H-spiro[cyclopentane-1,6′-pyrrolo[1,2-a]imidazole]]			> 1000	> 1000
Fc1ccc(-c2nc3n(c2-c2ccc4nccn4c2)CC2(CCCC2)C3)cc1 [Compound 72, 2′-(4-fluorophenyl)-3′-(imidazo[1,2-a]pyridin-6-yl)-5′H,7′H-spiro[cyclopentane-1,6′-pyrrolo[1,2-a]imidazole]]	> 1000	> 1000		
Cc1c(F)ccc(-c2nc3n(c2-c2ccc4ncnn4c2)CCC3)c1C [Compound 73, 6-(2-(4-fluoro-2,3-dimethylphenyl)-6,7-dihydro-5H-pyrrolo[1,2-a]imidazol-3-yl)-[1,2,4]triazolo[1,5-a]pyridine]			100 to 1000	> 1000
Cc1c(F)ccc(-c2nc3n(c2-c2ccc4nccn4c2)CCC3)c1C [Compound 74, 6-(2-(4-fluoro-2,3-dimethylphenyl)-6,7-dihydro-5H-pyrrolo[1,2-a]imidazol-3-yl)imidazo[1,2-a]pyridine]	100 to 1000	> 1000		
